The results in this text go back to patent publication US7517902B2, “Substituted indazoles, compositions containing the same, and the preparation and use thereof” (Aventis Pharma S.A., priority 2004, dated 2009).

In this test the target is T1, CDK4/cyclin D1 kinase complex (Homo sapiens, UniProt P11802).
T1 construct: HA (Hemagglutinin tag) (C); made in house; host or cells: Sf9 insect cells (baculovirus co-infection)
T1 sequence (P11802 whole entry): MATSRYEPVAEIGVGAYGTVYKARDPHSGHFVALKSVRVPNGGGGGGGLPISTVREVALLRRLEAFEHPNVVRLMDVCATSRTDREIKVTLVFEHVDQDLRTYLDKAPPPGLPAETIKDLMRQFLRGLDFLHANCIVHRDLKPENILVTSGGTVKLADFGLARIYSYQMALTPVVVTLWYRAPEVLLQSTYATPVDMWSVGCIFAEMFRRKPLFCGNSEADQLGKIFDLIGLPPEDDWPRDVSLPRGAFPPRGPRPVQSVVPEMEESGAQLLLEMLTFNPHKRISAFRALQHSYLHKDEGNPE
T1 sequence (P24385 whole entry partner): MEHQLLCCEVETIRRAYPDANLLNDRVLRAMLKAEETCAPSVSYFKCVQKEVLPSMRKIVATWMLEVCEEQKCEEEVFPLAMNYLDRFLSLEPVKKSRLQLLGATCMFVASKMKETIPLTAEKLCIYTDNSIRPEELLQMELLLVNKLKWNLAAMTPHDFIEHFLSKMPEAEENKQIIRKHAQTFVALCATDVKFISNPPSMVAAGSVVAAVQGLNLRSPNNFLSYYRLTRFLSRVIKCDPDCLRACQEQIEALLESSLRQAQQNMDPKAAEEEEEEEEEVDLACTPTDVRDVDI
As to the kind of experiment: CDK4/cyclinD1 Flashplate assay in 96-well format. The format is biochemical. To be noted: read-out: IC 50 CDK4. As for the experimental part: Purification of the CDK4-HA/cyclin D1-(His)6 complex by IMAC (Immobilized Metal Affinity Chromatography):
Two recombinant baculoviruses carrying the human sequences coding respectively for CDK4-HA (C-terminal fusion with the Hemagglutinin tag) and for cyclin D1-(His)6 are used to co-infect Sf9 insect cells. Sixty hours after the beginning of co-infection, the cells are harvested by centrifugation and then frozen at −20° C. until their use. After thawing in buffer A (HEPES 200 mM pH 7.0, NaCl 50 mM, MgCl2 2 mM, imidazole 25 mM, TCEP 1 mM, glycerol 10% (w/v), NaF 1 mM, Na3VO4 1 mM), stirring at 4° C. for 1 h, and centrifugation, the complex present in the lysis supernatant is purified by affinity chromatography on nickel (IMAC) and stored at −80° C.
CDK4/cyclinD1 Flashplate Assay in 96-Well Format.
An assay in 96-well “Flashplate” (scintillation plate) plates coated with streptavidin is used to evaluate the inhibition of the CDK4/cyclin D1 kinase complex by the products of the invention. To perform this test, the biotinylated peptide substrate, a fragment of the pRb protein, (biotinyl-[…]-amide), is dissolved at a concentration of 2 mM in kinase buffer (HEPES/NaOH 50 mM, NaCl 1 mM, MgCl2 5 mM, pH=7.5) to form a stock solution, which is stored at −20° C. in the form of 110 μl aliquots. On the day of the experiment, an aliquot of this solution is thawed and diluted in kinase buffer containing 1 mM of dithiothreitol, added at the time of use, so as to give a final peptide concentration of 2.571 μM. seventy μl of this solution are deposited in each well of the Flashplate plate, to give a final substrate concentration of 1.8 μM during the enzymatic reaction, which is performed in a final volume of 100 μl (cf. below). Intermediate dilutions of inhibitors (products of the invention) at various concentrations are prepared in DMSO from 10 mM stock solutions in separate tubes. In this way dilutions at 1000 μM, 333.3 μM, 111.1 μM, 37.03 μM, 12.35 μM, 4.11 μM and 1.37 μM are produced. One μl of each of these solutions (or 1 μl of DMSO for the controls) is subsequently transferred into the wells of the assay plate. To each well there is subsequently added 19 μl of a solution of a mixture of adenosine triphosphate (ATP) and ATPγ^33P in the kinase buffer at a concentration of 5.26 μM of total ATP and 78.9 μCi/ml of ^33P. The enzymatic reaction is triggered by adding 10 μl per well of a solution of CDK4/cyclin D1 complex at 250 nM in the kinase buffer, containing 1 mM of dithiothreitol (or 10 μl of kinase buffer containing 1 mM of dithiothreitol for the reaction blanks). At the end of the various additions, the final volume in each well is 100 μl, the final substrate concentration is 1.8 μM, the final inhibitor concentrations are 10 μM, 3.33 μM, 1.11 μM, 0.37 μM, 0.123 μM, 0.041 μM and 0.014 μM (depending on the concentration of the intermediate dilution), the final ATP concentration is 1 μM, the final amount of ^33P is 1.5 μCi/well, and the final concentration of CDK4/cyclin D1 complex is 25 nM.
After all of the reagents have been added, the assay plate is incubated at 30° C. with orbital stirring at 650 rpm. Following incubation, the plate is washed three times with 300 μl per well of PBS buffer (phosphate buffered saline, pH=7.4 with neither calcium nor magnesium, reference 10010-015, Gibco BRL). The incorporation of ^33P into the substrate peptide is measured by scintillation counting using a Packard Topcount.NXT instrument. The inhibitory activity of the products of the invention is evaluated by determining the concentration of inhibitor resulting in a 50% reduction in the enzymatic activity (IC50).
Regarding `O=C(Nc1n[nH]c2c(F)c(-c3ccc(NS(=O)(=O)c4cccc5ccccc45)cc3)ccc12)c1ccsc1` [Example 30, Thiophene-3-carboxylic acid{7-fluoro-6-[4-(naphthalene-1-sulfonylamino)-phenyl]-1H-indazol-3-yl}-amide], the IC50 worked out at 490 nM.

Regarding `O=C(Nc1n[nH]c2c(F)c(-c3ccc(NS(=O)(=O)c4cccs4)cc3)ccc12)c1ccsc1` [Example 31, Thiophene-3-carboxylic acid{7-fluoro-6-[4-(thiophene-2-sulfonylamino)-phenyl]-1H-indazol-3-yl}-amide], the IC50 amounted to 730 nM.

As to `O=C(Nc1n[nH]c2c(F)c(-c3ccc(NS(=O)(=O)c4ccccc4)cc3)ccc12)c1ccsc1` [Example 32, Thiophene-3-carboxylic acid[6-(4-benzene-sulfonylamino-phenyl)-7-fluoro-1H-indazol-3-yl]-amide], the IC50 worked out at 747 nM.

With `CC(=O)Nc1ccc(S(=O)(=O)Nc2ccc(-c3ccc4c(NC(=O)c5ccsc5)n[nH]c4c3F)cc2)cc1` [Example 33, Thiophene-3-carboxylic acid{6-[4-(4-acetyl-aminobenzene-sulfonylamino)-phenyl]-7-fluoro-1H-indazol-3-yl}-amide], the IC50 is 1210 nM.

In the case of `CS(=O)(=O)Nc1ccc(-c2ccc3c(NC(=O)c4ccsc4)n[nH]c3c2F)cc1` [Example 34, Thiophene-3-carboxylic acid[7-fluoro-6-(4-methanesulfonyl-aminophenyl)-1H-indazol-3-yl]-amide], the IC50 came out at 2090 nM.

On to `O=C(Nc1n[nH]c2c(F)c(-c3ccc(NS(=O)(=O)C4CC4)cc3)ccc12)c1ccsc1` [Example 36, Thiophene-3-carboxylic acid{6-[4-cyclo-propanesulfonyl-aminophenyl)-7-fluoro-1H-indazol-3-yl}-amide], for which the IC50 came to 3600 nM.

Turning to `O=C(Nc1n[nH]c2c(F)c(-c3ccc(NS(=O)(=O)c4ccccc4Cl)cc3)ccc12)c1ccsc1` [Example 37, Thiophene-3-carboxylic acid{6-[4-(2-chloro-benzenesulfonyl-amino)phenyl]-7-fluoro-1H-indazol-3-yl}-amide], the IC50 was 51 nM.

As for `O=C(Nc1n[nH]c2c(F)c(-c3ccc(NS(=O)(=O)c4cccc(Cl)c4)cc3)ccc12)c1ccsc1` [Example 38, Thiophene-3-carboxylic acid{6-[4-(3-chloro-benzenesulfonyl-amino)phenyl]-7-fluoro-1H-indazol-3-yl}-amide], the IC50 was 419 nM.

For `Cn1cnc(S(=O)(=O)Nc2ccc(-c3ccc4c(NC(=O)c5ccsc5)n[nH]c4c3F)cc2)c1` [Example 39, Thiophene-3-carboxylic acid{7-fluoro-6[4-(1-methyl-1H-imidazole-4-sulfonylamino)-phenyl]-1H-indazol-3-yl}-amide], the IC50 was 3650 nM.
